Results on six molecules are retold here after PMC5430831 (Acta Pharmaceutica Sinica. B, 2017).

A word on the IC50: it is the concentration that inhibits the measured activity by half.

Like-named read-outs stand apart in the source and are kept apart here.

Assay [1] has as its system HL-60 cells. Description: Annexin V-FITC/propidium iodide labeling, confocal imaging. The format is cell-based, Human. Conditions: HL-60, 5 and 10 μmol/L, 48 h.
For another assay, the target named is CHK2 (Homo sapiens, UniProt O96017). Description: Radioactive filter binding kinase assay, CHK2. The format is biochemical.
CHK2, sequence (O96017 whole entry, species assumed): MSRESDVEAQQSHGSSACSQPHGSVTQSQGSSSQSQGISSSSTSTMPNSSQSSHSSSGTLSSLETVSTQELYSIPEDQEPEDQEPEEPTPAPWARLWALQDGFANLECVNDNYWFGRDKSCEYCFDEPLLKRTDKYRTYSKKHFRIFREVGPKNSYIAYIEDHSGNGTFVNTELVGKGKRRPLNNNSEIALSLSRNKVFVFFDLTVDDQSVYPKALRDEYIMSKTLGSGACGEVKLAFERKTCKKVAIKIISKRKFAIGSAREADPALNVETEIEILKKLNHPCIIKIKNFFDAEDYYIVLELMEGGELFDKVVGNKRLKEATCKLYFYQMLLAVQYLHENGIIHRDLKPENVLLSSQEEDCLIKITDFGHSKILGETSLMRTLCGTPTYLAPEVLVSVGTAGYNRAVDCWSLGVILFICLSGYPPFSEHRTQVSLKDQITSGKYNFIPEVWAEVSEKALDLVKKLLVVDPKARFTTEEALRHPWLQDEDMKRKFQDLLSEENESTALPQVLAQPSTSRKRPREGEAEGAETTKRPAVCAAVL
For a further assay, the target named is MNK2 (Homo sapiens, UniProt Q9HBH9). Description: Radioactive filter binding kinase assay, MNK2. Conditions: read-out: percent inhibition MNK2.
MNK2, sequence (Q9HBH9 whole entry, species assumed): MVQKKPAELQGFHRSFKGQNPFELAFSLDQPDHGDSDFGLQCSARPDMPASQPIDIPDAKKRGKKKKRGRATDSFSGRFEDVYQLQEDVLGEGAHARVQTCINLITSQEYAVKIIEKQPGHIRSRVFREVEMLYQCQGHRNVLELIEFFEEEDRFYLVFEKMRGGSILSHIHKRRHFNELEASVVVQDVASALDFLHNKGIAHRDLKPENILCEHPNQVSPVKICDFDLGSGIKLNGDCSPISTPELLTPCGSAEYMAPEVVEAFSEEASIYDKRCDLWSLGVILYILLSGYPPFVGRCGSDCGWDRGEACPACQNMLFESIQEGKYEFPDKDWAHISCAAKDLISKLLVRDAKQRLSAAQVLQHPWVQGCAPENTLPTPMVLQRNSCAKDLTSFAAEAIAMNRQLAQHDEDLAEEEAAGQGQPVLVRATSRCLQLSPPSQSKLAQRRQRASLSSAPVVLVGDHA
Assay [2] deals with HL-60 cells. As to the kind of experiment: Cell cycle analysis by flow cytometry. The format is cell-based, Human.
Assay [3] has as its system HL-60 cells. Description: Mitochondrial membrane potential measurement. Format: cell-based, Human. Conditions: HL-60, 10 μmol/L, JC-1, from 6 h.
The test system of assay [4] is HL-60 cells. As to the kind of experiment: LDH release assay. Format: cell-based, Human.
The next assay relates to MOLT-4 cells. The following applies: MOLT-4 cells ref 16; cited from earlier work.
Another assay deals with VEGFR1 (Homo sapiens, UniProt P17948). As to the kind of experiment: Radioactive filter binding kinase assay, VEGFR1. Format: biochemical.
VEGFR1, sequence (P17948 27-1338, species assumed): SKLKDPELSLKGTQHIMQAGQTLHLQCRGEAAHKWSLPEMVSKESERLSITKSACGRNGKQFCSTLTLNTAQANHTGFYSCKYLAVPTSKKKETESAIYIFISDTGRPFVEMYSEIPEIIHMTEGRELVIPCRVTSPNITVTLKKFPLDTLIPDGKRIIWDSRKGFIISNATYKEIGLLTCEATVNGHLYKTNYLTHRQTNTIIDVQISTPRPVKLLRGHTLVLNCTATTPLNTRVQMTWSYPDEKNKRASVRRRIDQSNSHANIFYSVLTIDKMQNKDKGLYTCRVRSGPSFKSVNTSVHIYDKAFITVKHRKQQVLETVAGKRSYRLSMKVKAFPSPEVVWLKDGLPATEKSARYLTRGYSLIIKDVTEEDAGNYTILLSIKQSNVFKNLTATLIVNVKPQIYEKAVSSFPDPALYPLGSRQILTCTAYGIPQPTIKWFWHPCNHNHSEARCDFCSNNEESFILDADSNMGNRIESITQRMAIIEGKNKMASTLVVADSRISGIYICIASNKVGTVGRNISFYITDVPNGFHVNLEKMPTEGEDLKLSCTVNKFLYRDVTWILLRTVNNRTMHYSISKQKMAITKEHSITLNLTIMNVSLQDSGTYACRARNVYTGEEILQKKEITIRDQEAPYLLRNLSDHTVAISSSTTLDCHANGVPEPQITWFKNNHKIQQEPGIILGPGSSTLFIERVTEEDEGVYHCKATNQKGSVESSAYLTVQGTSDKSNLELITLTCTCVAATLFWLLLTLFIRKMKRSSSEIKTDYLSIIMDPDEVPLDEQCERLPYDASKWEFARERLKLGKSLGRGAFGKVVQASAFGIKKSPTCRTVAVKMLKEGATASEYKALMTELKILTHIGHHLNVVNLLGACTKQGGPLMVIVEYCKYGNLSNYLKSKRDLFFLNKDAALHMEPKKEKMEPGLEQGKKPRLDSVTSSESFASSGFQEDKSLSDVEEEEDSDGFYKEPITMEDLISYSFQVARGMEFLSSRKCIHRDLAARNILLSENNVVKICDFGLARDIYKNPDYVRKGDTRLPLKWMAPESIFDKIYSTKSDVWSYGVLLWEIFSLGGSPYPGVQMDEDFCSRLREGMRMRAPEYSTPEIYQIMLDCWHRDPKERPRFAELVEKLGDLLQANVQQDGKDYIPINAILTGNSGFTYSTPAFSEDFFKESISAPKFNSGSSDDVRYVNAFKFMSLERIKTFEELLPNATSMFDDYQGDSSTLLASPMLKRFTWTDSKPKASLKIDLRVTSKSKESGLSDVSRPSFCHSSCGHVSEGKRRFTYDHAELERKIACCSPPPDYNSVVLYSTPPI
A further assay relates to caspase-3. As to the kind of experiment: Caspase-3 colorimetric activity assay. The following applies: HL-60, 10 μmol/L, 48 h. The format is cell-based, Human.
Assay [5] deals with HL-60 cells. Description: Drug accumulation assay. Format: cell-based, Human. The following applies: HL-60, 2 h incubation, emission 446 nm.
In the next assay the target is Aurora B (Homo sapiens, UniProt Q96GD4). As to the kind of experiment: Radioactive filter binding kinase assay, Aurora B. Conditions: read-out: percent inhibition Aurora B.
Aurora B, sequence (Q96GD4 whole entry): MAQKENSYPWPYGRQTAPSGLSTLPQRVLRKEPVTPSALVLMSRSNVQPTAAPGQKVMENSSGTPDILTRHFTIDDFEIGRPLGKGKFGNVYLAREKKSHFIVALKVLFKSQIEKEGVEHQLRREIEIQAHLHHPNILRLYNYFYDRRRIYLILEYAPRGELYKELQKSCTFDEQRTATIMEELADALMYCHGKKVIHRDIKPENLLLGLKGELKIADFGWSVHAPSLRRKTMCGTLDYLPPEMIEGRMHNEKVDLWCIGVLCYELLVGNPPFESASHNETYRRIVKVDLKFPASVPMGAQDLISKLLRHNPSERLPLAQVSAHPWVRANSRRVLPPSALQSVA
Where [6] appears, read: read-out: IC50 CHK2, mean±SD (n=3).
The mark [7] stands for this setting: read-out: IC50 VEGFR1, mean±SD (n=3).

For `CCCCNc1ncnc2c1sc1nc3ccccc3cc12` [BPTQ, 4-butylaminopyrimido[4′,5′:4,5]thieno(2,3-b)quinoline], in the assay on HL-60 cells [1], the “Annexin V-FITC / propidium iodide staining (apoptosis)” value is on record as “confirming the induction of apoptosis”. Besides, the activity at 1 µM on CHK2 (read-out: percent inhibition CHK2) was found to be 40%; at MNK2, 79%; at VEGFR1 (read-out: percent inhibition VEGFR1), 44%; on Aurora B it was 74%. Further, in the assay with HL-60 cells [2] (HL-60, 10 μmol/L, 48 h), the “Sub G0/G1 cells” value is 47%. Further, the Cell cycle arrest result in the assay on HL-60 cells [2] (HL-60, 48 h) is recorded as “did not induce any cell cycle arrest”. In addition, the “Mitochondrial membrane potential (ΔΨm)” value in the assay on HL-60 cells [3] is “striking fall in the membrane potential”. The LDH release result with HL-60 cells [4] (HL-60, 10 μmol/L) is “did not induce LDH release”; in the assay with HL-60 cells [4] (HL-60, 50 μmol/L) it was “increased the release of LDH”; with HL-60 cells [4] (HL-60, 100 μmol/L) it was “increased the release of LDH”. Moreover, in the assay on MOLT-4 cells, the Cell cycle effect result is reported as “cell cycle arrest was observed”. In the assay with caspase-3, the “Increase in caspase-3 activity relative to control” value was “about 2 fold”. In addition, the Intracellular drug uptake result in the assay on HL-60 cells [5] is “dose dependent increase in the intracellular drug uptake”.

`O=C1Nc2ccccc2/C1=C1/Nc2ccccc2C1=O` [Indirubin]: the IC50 at CHK2 amounted to 81 ± 19 nM; on VEGFR1, 42 ± 12 nM.

On to `COC(=O)[C@@]1(O)C[C@H]2O[C@]1(C)n1c3ccccc3c3c4c(c5c6ccccc6n2c5c31)C(=O)NC4` [K252a], for which the figures for the IC50 on CHK2 (setting [6]) and on VEGFR1 (setting [7]) were 23 ± 5 nM and 13 ± 2 nM, respectively.

In the case of `O=c1c(O)c(-c2cc(O)c(O)c(O)c2)oc2cc(O)cc(O)c12` [Myricetin], on VEGFR1, the IC50 was found to be 779 ± 173 nM.

For the molecule `Cn1cc(C2=C(c3cn(CCCSC(=N)N)c4ccccc34)C(=O)NC2=O)c2ccccc21` [Ro318220], the values for the half-inhibitory concentration (IC50) on CHK2 (setting [6]) and on VEGFR1 (setting [7]) were 1070 ± 210 nM and 120 ± 14 nM, respectively.

`Oc1c2ccccc2c2c3c(cccc13)N=N2` [SP600125]: the IC50 on CHK2 was found to be 304 ± 94 nM; at VEGFR1, 335 ± 74 nM.
